Data published in patent publication US20080139624A1, “Oral Dosage Form Comprising Rosiglitazone” (priority 2005, published 2008).

Test: pH dependent solubility
Assay type: physicochemical
Details: acidic conditions of the stomach (around pH 2) vs near neutral conditions of the lower intestine (around pH 7)

Compound: CN(CCOc1ccc(CC2SC(=O)NC2=O)cc1)c1ccccn1 (stereo not shown) [Compound A, 5-[4-[2-(N-methyl-N-(2 pyridyl)amino)ethoxy]benzyl]thiazolidine-2,4-dione]
- pH dependent solubility: marked pH dependent solubility
